Results reported in patent US20040254162A1, “Oxazolidinone derivatives as antimicrobials” (priority 2001, published 2004).
In brackets after ≈: the same amount, converted by molar mass.

Experiments:
Fusobacterium necrogenes = experiment: Agar dilution MIC, anaerobes; format: cell-based; settings: Fusobacterium necrogenes; single isolate, anaerobic agar dilution; read-out: MIC Fusobacterium necrogenes
[1] = tested on: Peptostreptococcus prevotii; experiment: Agar dilution MIC, anaerobes; format: cell-based; settings: single isolates, anaerobic agar dilution
P. acnes = experiment: Agar dilution MIC, anaerobes; format: cell-based; settings: Cutibacterium acnes, single isolates, anaerobic agar dilution; read-out: MIC P. acnes
Clostridium perfringens = experiment: microbe, parasite or virus in culture; format: cell-based
Porphyromonas gingivalis = experiment: Agar dilution MIC, anaerobes; format: cell-based; settings: Porphyromonas gingivalis; single isolate, anaerobic agar dilution; read-out: MIC Porphyromonas gingivalis
[2] = tested on: Prevotella melaninogenica; experiment: Agar dilution MIC, anaerobes; format: cell-based; settings: Prevotella melaninogenica, single isolates, anaerobic agar dilution; read-out: MIC Prevotella melaninogenica
Clostridium difficile = experiment: Agar dilution MIC, anaerobes; format: cell-based; settings: single isolates, anaerobic agar dilution
[3] = tested on: Porphyromonas asaccharolytica; experiment: Agar dilution MIC, anaerobes; format: cell-based; settings: Porphyromonas asaccharolytica; single isolate, anaerobic agar dilution; read-out: MIC Porphyromonas asaccharolytica
anaerobic bacteria = experiment: Agar dilution method for anaerobic bacteria, summary; format: cell-based
Clostridium camis = experiment: Agar dilution MIC, anaerobes; format: cell-based; settings: Clostridium; single isolates, anaerobic agar dilution; read-out: MIC Clostridium camis
Prevotella intermedia = experiment: Agar dilution MIC, anaerobes; format: cell-based; settings: Prevotella intermedia, single isolates, anaerobic agar dilution; read-out: MIC Prevotella intermedia
Prevotella bivia = experiment: Agar dilution MIC, anaerobes; format: cell-based; settings: Prevotella bivia; single isolate, anaerobic agar dilution; read-out: MIC Prevotella bivia
[4] = tested on: Prevotella (Bacteroides) disiens; experiment: Agar dilution MIC, anaerobes; format: cell-based; settings: single isolates, anaerobic agar dilution
Strep. pyog. ATCC 19615 = experiment: MIC, agar incorporation method; settings: agar incorporation
MRSA 15187 = experiment: MIC, agar incorporation method; settings: agar incorporation
S. pneumoniae = experiment: Summary of in vitro activity (MIC); settings: S. pneumoniae; for MIC50 / MIC90: Number 19
MRSA 33 = experiment: MIC, agar incorporation method; settings: agar incorporation
S. aureus ATCC 25923 = experiment: MIC, agar incorporation method; settings: agar incorporation
S. aureus = experiment: Summary of in vitro activity (MIC); settings: S. aureus; for MIC50 / MIC90: Number 8
S. pneum AB 34 = experiment: MIC, agar incorporation method; settings: agar incorporation
VRE 6A (Ent. faecium 6A) = experiment: MIC, agar incorporation method; settings: agar incorporation
MRSA 562 [5] = experiment: MIC, agar incorporation method; settings: for MIC: MRSA 562, Table 5
G +ve bacteria = experiment: Summary of in vitro activity (MIC); settings: for MIC50 / MIC90: G +ve, Number 49; for Geometric Mean of in vitro activity (MIC): Gram + ve
MRSA 562 [6] = experiment: In vivo activity against MRSA 562 (ED50); set-up: species or system Methicillin Resistant Staphylococcus aureus; settings: PO; MRSA 562 infection
E. faecalis = experiment: Summary of in vitro activity (MIC); settings: E. faecalis; for MIC50 / MIC90: Number 7
Ent. faecalis ATCC 29212 = experiment: MIC, agar incorporation method; settings: agar incorporation
Strep. pne. ATCC 6303 = experiment: MIC, agar incorporation method; settings: agar incorporation

Compound | MIC S. pyogenes 19615 (Strep. pyog. ATCC 19615) | MIC MRSA 15187 (MRSA 15187) | Geometric Mean of in vitro activity (MIC) (S. pneumoniae) | MIC50 (S. pneumoniae) | MIC90 (S. pneumoniae) | MIC MRSA 33 (MRSA 33) | MIC S. aureus 25923 (S. aureus ATCC 25923) | Geometric Mean of in vitro activity (MIC) (S. aureus) | MIC50 (S. aureus) | MIC90 (S. aureus) | MIC S. pneum AB 34 (S. pneum AB 34) | MIC VRE 6A (VRE 6A (Ent. faecium 6A)) | MIC (MRSA 562 [5]) | MIC50 (G +ve bacteria) | MIC90 (G +ve bacteria) | Geometric Mean of in vitro activity (MIC) (G +ve bacteria) | ED50 (mg/kg body weight) PO (MRSA 562 [6]) | Geometric Mean of in vitro activity (MIC) (E. faecalis) | MIC50 (E. faecalis) | MIC90 (E. faecalis) | further results
CCC[C@@H]1C[C@@H](C(=O)N[C@@H]([C@H]2O[C@H](SC)[C@H](O)[C@@H](O)[C@H]2O)[C@H](C)Cl)N(C)C1 [Clindamycin] | – | – | – | – | – | – | – | – | – | – | – | – | – | – | – | – | – | – | – | – | MIC (Fusobacterium necrogenes): 0.03 µg/mL (≈ 0.0706 µM); MIC ([1]; Anaerococcus prevotii, read-out: MIC Peptostreptococcus prevotii): 0.25 µg/mL (≈ 0.588 µM); MIC Peptostreptococcus prevotii [1]: 0.125 µg/mL (≈ 0.294 µM); MIC (P. acnes): 0.06 µg/mL (≈ 0.141 µM); MIC (Clostridium perfringens; Clostridium perfringens, read-out: MIC Clostridium perfringens, single isolates, anaerobic agar dilution): 1 µg/mL (≈ 2.35 µM); MIC Clostridium perfringens (Clostridium perfringens; single isolates, anaerobic agar dilution): 0.5 µg/mL (≈ 1.18 µM); MIC (Porphyromonas gingivalis): ≤ 0.016 µg/mL; MIC [2]: ≤ 0.016 µg/mL; MIC (Clostridium difficile; Clostridioides difficile, read-out: MIC Clostridium difficile): 2 µg/mL (≈ 4.71 µM); MIC Clostridium difficile (Clostridium difficile): 4 µg/mL (≈ 9.41 µM); MIC [3]: ≤ 0.016 µg/mL; MIC50 (anaerobic bacteria; 48 h): 0.125 µg/mL (≈ 0.294 µM); MIC90 (anaerobic bacteria; 48 h): 8 µg/mL (≈ 18.8 µM); Geometric Mean (anaerobic bacteria; anaerobes): 0.208 µg/mL; MIC Range (anaerobic bacteria; anaerobes): 0.008 to 64 µg/mL; MIC (Clostridium camis): 0.03 µg/mL (≈ 0.0706 µM); MIC (Prevotella intermedia): ≤ 0.016 µg/mL; MIC (Prevotella bivia): > 32 µg/mL; MIC Prevotella (Bacteroides) disiens [4]: 4 µg/mL (≈ 9.41 µM); MIC ([4]; read-out: MIC Prevotella (Bacteroides) disiens): 8 µg/mL (≈ 18.8 µM)
CC(=O)NC[C@H]1CN(c2ccc(N3CCN(C(=O)c4ccc([N+](=O)[O-])o4)CC3)c(F)c2)C(=O)O1 [Compound No. 06, (S)-N-[[3-Fluoro-4-[N-1[4-(5-nitro-2-furoyl)piperazinyl]phenyl]-2-oxo-5-oxazolidinyl]methyl]acetamide] | 2 µg/mL (≈ 4.21 µM) | 0.5 µg/mL (≈ 1.05 µM) | 1.27 µg/mL | 2 µg/mL (≈ 4.21 µM) | 2 µg/mL (≈ 4.21 µM) | 0.5 µg/mL (≈ 1.05 µM) | 1 µg/mL (≈ 2.1 µM) | 0.74 µg/mL | 1 µg/mL (≈ 2.1 µM) | 1 µg/mL (≈ 2.1 µM) | 2 µg/mL (≈ 4.21 µM) | 1 µg/mL (≈ 2.1 µM) | 1 µg/mL (≈ 2.1 µM) | 1 µg/mL (≈ 2.1 µM) | 2 µg/mL (≈ 4.21 µM) | 0.79 µg/mL | >25 mg/kg body weight | 0.92 µg/mL | 1 µg/mL (≈ 2.1 µM) | 1 µg/mL (≈ 2.1 µM) | MIC E. faecalis 29212 (Ent. faecalis ATCC 29212): 1 µg/mL (≈ 2.1 µM); MIC S. pneum 6303 (Strep. pne. ATCC 6303): 2 µg/mL (≈ 4.21 µM)
CC(=O)NC[C@H]1CN(c2ccc(N3CCN(Cc4ccc([N+](=O)[O-])o4)CC3)c(F)c2)C(=O)O1 [Compound No. 15, (S)-N-[[3-[3-fluoro-4-[N-1-[4-{2-furyl-(5-nitro)methyl}]piperazinyl]phenyl]-2-oxo-5-oxazolidinyl]methyl]acetamide] | 1 µg/mL (≈ 2.17 µM) | 2 µg/mL (≈ 4.33 µM) | 1.04 µg/mL | 2 µg/mL (≈ 4.33 µM) | 4 µg/mL (≈ 8.67 µM) | 2 µg/mL (≈ 4.33 µM) | 2 µg/mL (≈ 4.33 µM) | 1.63 µg/mL | 2 µg/mL (≈ 4.33 µM) | 2 µg/mL (≈ 4.33 µM) | 2 µg/mL (≈ 4.33 µM) | 1 µg/mL (≈ 2.17 µM) | 2 µg/mL (≈ 4.33 µM) | 1 µg/mL (≈ 2.17 µM) | 2 µg/mL (≈ 4.33 µM) | 1.08 µg/mL | 4.33 mg/kg body weight | 1.6 µg/mL | 2 µg/mL (≈ 4.33 µM) | 2 µg/mL (≈ 4.33 µM) | MIC MRSA 562 (MRSA 562 [5]; agar incorporation, Table 1): 2 µg/mL (≈ 4.33 µM); MIC E. faecalis 29212 (Ent. faecalis ATCC 29212): 2 µg/mL (≈ 4.33 µM); MIC S. pneum 6303 (Strep. pne. ATCC 6303): 1 µg/mL (≈ 2.17 µM)
